Laboratory results: patent publication US20010051646A1, “Method for the improvement of islet signaling in diabetes mellitus and for its prevention” (priority 2000, published 2001)
Several values for one entry are separate records, joined by “and”; a condition that tells them apart may be missing. Equal values may be shown once. Entries after “also recorded” stand apart in the source; their conditions may differ.

How the values were obtained:
Type in all cases: in vivo, rat
Male Zucker fa/fa rats [1] = assay: Repeated once-daily oral dosing: morning blood glucose and plasma insulin
Procedure: The parameters monitored were morning blood glucose and plasma insulin levels. In a day-night profile, glycemia and insulinaemia were monitored from day 16 to day 17. An OGTT was performed finally on day 21 to monitor blood glucose and plasma insulin kinetics to assess changes in glucose tolerance. Glibenclamide (DAB 1996; R011150/33372) was donated by Berlin-Chemie (Berlin, Germany). Male Zucker (fa/fa) rats of the body weight class of 300 g were purchased from Charles River (Sulzfeld, Germany).
Housing Conditions: Animals were kept single-housed under conventional conditions with controlled temperature (22±2° C.) on a 12/12 hours light/dark cycle (light on at 06:00 a.m.). Standard pellets (ssniff®, Soest, Germany) and tap water acidified with HCl were allowed ad libitum.
Catheterization of Carotid Artery: After one week of adaptation carotid catheters were implanted in the rats under general anesthesia (injection of 0.25 ml/kg i.p. Rompun® [2%], Bayer, Germany) and 0.5 ml/kg i.p. Velonarkon® (Arzneimittelwerk Dresden, Germany). The animals were allowed to recover for one week. The catheter was flushed with heparin-saline (100 IU/ml) three times per week.
Thereafter, the non-diabetic Wistar rats were treated orally once daily with RP (5 mg/kg b.w.) or TP (21.61 mg/kg b.w.) and the diabetic Zucker rats were treated orally once daily with RP (1 mg/kg b.w.) or TP (21.61 mg/kg b.w.) for 21 days at 05.00 p.m. (before regular food intake in the dark phase). The controls were given 1% cellulose solution orally (5 ml/kg). Blood samples were taken every morning at 07.30 a.m. from tail veins for measurement of blood glucose and plasma insulin. The last blood samples of this part of the program were taken at 07.30 a. m. on the 15th day to measure blood glucose and plasma insulin. The oral drug therapy was continued for one week. Recording the day-night profile under the above therapy blood glucose (Δt=3 h) and plasma insulin (Δt=3-6 h) were monitored from day 16 (at 05.00 p.m. beginning) to day 17 (at 02.00 p.m. end).
Blood glucose: Glucose levels were measured using the glucose oxidase procedure (Super G Glukosemeβgerät; Dr. Müller Gerätebau, Freital, Germany).
Plasma insulin: Insulin concentrations were assayed by the antibody RIA method (LINCO Research, Inc. St. Charles, Mo., USA).

Male Zucker fa/fa rats [2] = assay: OGTT after 21 days treatment: blood glucose and plasma insulin
Procedure: The parameters monitored were morning blood glucose and plasma insulin levels. […] An OGTT was performed finally on day 21 to monitor blood glucose and plasma insulin kinetics to assess changes in glucose tolerance. Glibenclamide (DAB 1996; R011150/33372) was donated by Berlin-Chemie (Berlin, Germany). Male Zucker (fa/fa) rats of the body weight class of 300 g were purchased from Charles River (Sulzfeld, Germany). Repeated Dosing: 30 male non-diabetic Wistar and 30 male diabetic Zucker rats were randomized to RP (Reference Product: glibenclamide)-, TP- (jest Product: […] Thereafter, the non-diabetic Wistar rats were treated orally once daily with RP (5 mg/kg b.w.) or TP (21.61 mg/kg b.w.) and the diabetic Zucker rats were treated orally once daily with RP (1 mg/kg b.w.) or TP (21.61 mg/kg b.w.) for 21 days at 05.00 p.m. (before regular food intake in the dark phase). The controls were given 1% cellulose solution orally (5 ml/kg). […] The oral drug therapy was continued for one week. […] OGTT: A final OGTT was performed on day 21 with blood sampling from the tail vein. […] The latter were immediately centrifuged and the plasma fractions were stored at −20 ° C. for insulin analysis. Blood glucose: Glucose levels were measured using the glucose oxidase procedure (Super G Glukosemeβgerät; Dr. Müller Gerätebau, Freital, Germany). Plasma insulin: Insulin concentrations were assayed by the antibody RIA method (LINCO Research, Inc. St. Charles, Mo., USA).

Male Zucker fa/fa rats [3] = assay: Day-night profile of glycemia and insulinemia, day 16 to day 17 of treatment
Procedure: The parameters monitored were morning blood glucose and plasma insulin levels. […] An OGTT was performed finally on day 21 to monitor blood glucose and plasma insulin kinetics to assess changes in glucose tolerance. Glibenclamide (DAB 1996; R011150/33372) was donated by Berlin-Chemie (Berlin, Germany). Male Zucker (fa/fa) rats of the body weight class of 300 g were purchased from Charles River (Sulzfeld, Germany). […] Thereafter, the non-diabetic Wistar rats were treated orally once daily with RP (5 mg/kg b.w.) or TP (21.61 mg/kg b.w.) and the diabetic Zucker rats were treated orally once daily with RP (1 mg/kg b.w.) or TP (21.61 mg/kg b.w.) for 21 days at 05.00 p.m. (before regular food intake in the dark phase). The controls were given 1% cellulose solution orally (5 ml/kg). […] The oral drug therapy was continued for one week. […] Blood glucose: Glucose levels were measured using the glucose oxidase procedure (Super G Glukosemeβgerät; Dr. Müller Gerätebau, Freital, Germany). Plasma insulin: Insulin concentrations were assayed by the antibody RIA method (LINCO Research, Inc. St. Charles, Mo., USA).

In the case of “isoleucyl thiazolidine hemifumarate [P32/98]”, the Hyperinsulinemia (Male Zucker fa/fa rats [1]; given once daily) is reported as “reduced”, the Morning blood glucose (Male Zucker fa/fa rats [1]; given once daily) is reported as “normalized” and the “Time until morning blood glucose was reduced to a normal value” (Male Zucker fa/fa rats [1]; once daily oral) is reported as no more than 5 days. The “Plasma insulin during 14 days in comparison to the control animals” value (Male Zucker fa/fa rats [1]; rat, in vivo) was “slightly decrease insulin concentration”, the “Glycemia at the last drug application” value (Male Zucker fa/fa rats [2]; 05.00 p.m., night before day 21) was 5.75 ± 0.23 mmol/L and the “G-AUC in comparison to the placebo application” value (Male Zucker fa/fa rats [2]; day 21) was “did not increase”. For the same substance, the “Mean blood glucose curve in the OGTT versus controls” value (Male Zucker fa/fa rats [2]; day 21) was “not different from that of the controls”, the “Blood glucose during OGTT” value (Male Zucker fa/fa rats [2]; day 21, 50 min) was 14.54 ± 0.65 mmol/L and the “Blood glucose during OGTT” value (Male Zucker fa/fa rats [2]; day 21, 120 min) was 10.67 ± 0.62 mmol/L. For the same substance, the “Glycemia after overnight fasting (basal, before OGTT)” value (Male Zucker fa/fa rats [2]; day 21, morning (07.30 a. m.)) was 4.88 ± 0.13 mmol/L, the “Fasting plasma insulin at the beginning of the OGTT” value (Male Zucker fa/fa rats [2]; day 21, overnight fasting, listed as TP) was 9.3 ± 1.5 ng/mL and ~9 ng/mL and the “Plasma insulin after a glucose stimulus” value (Male Zucker fa/fa rats [2]; day 21 OGTT) was “remained mostly unchanged”. For the same substance, the “Glucose area under the curve (G-AUC0-120 min)” value (Male Zucker fa/fa rats [2]; day 21 OGTT, CO-group 823±41) was 895 ± 50 mmol·min/L, the “I-AUC0-120 min compared with the other groups” value (Male Zucker fa/fa rats [2]; day 21 OGTT, listed as TP) was “lower than in the CO- or RP-groups (NS); also recorded: slightly lower” and the “Mean blood glucose, day-night profile” value (Male Zucker fa/fa rats [3]; 02.00 p.m. next day, RP 1 mg/kg, TP 21.61 mg/kg orally once daily) was 5.51 ± 0.19 mmol/L. The “Plasma insulin, day-night profile” value (Male Zucker fa/fa rats [3]; 02.00 p.m. the next day) was 24.3 ± 3.7 ng/mL, the “Plasma insulin, day-night profile” value (Male Zucker fa/fa rats [3]; 05.00 a.m. (maximum)) was 57.1 ± 8.6 ng/mL and the “Plasma insulin, day-night profile” value (Male Zucker fa/fa rats [3]; 05.00 p.m., RP 1 mg/kg, TP 21.61 mg/kg orally once daily) was “significantly lower than in the RP”. For the same substance, the “Mean blood glucose, day-night profile” value (Male Zucker fa/fa rats [3]; 08.00 a.m., TP 21.61 mg/kg orally once daily) was 5.64 ± 0.23 mmol/L, the “Plasma insulin, day-night profile” value (Male Zucker fa/fa rats [3]; 08.00 p.m.) was 41.9 ± 8.5 ng/mL and the “Mean blood glucose, day-night profile” value (Male Zucker fa/fa rats [3]; 11.00 a.m., RP 1 mg/kg, TP 21.61 mg/kg orally once daily) was 5.33 ± 0.14 mmol/L. The “Mean blood glucose, day-night profile” value (Male Zucker fa/fa rats [3]; 11.00 p.m., RP 1 mg/kg, TP 21.61 mg/kg orally once daily) was 8.34 ± 0.47 mmol/L, the “Increase of glycemia from 05.00 p.m. to 11.00 p.m.” value (Male Zucker fa/fa rats [3]; day 16) was “about 3 mmol/l” and the “Individual blood glucose values, range” value (Male Zucker fa/fa rats [3]; day 16, 05.00 p.m.) was 4.34 to 6.07 mmol/L. For the same substance, the “Mean blood glucose, day-night profile” value (Male Zucker fa/fa rats [3]; day 16, 05.00 p.m. before drug application, RP 1 mg/kg, TP 21.61 mg/kg orally once daily) was 5.25 ± 0.16 mmol/L, the “Blood glucose in the day-night profile” value (Male Zucker fa/fa rats [3]; given once daily) was less than 8.3 mmol/L and the “Economization (saving) of insulin compared to the control” value (Male Zucker fa/fa rats [3]; obese Zucker rat, subchronic treatment) was 45%.
